Experimental data as given in the NIST ThermoML archive (doi:10.1021/je034279l).

Columns and labels:
[1] = xn = mol fraction of the nth substance listed; conditions: 298.15 K; for surface tension liquid-gas: Pendant drop shape; for excess molar volume: 101 kPa, Liquid
[2] = 298.15 K; for surface tension liquid-gas: Pendant drop shape; for mass density: 101.33 kPa, Liquid

Cc1ccccc1C [1,2-dimethylbenzene] + COC(C)(C)C
[1]
Conditions	surface tension liquid-gas [mN/m]
x2 = 0.0997	27.9
x2 = 0.1996	26.62
x2 = 0.3012	25.28
x2 = 0.4008	24.14
x2 = 0.4997	23.12
x2 = 0.6012	22.17
x2 = 0.7002	21.3
x2 = 0.8	20.57
x2 = 0.8999	19.78

COC(C)(C)C [2-methoxy-2-methylpropane] + Cc1ccc(C)cc1
[1]
Conditions	surface tension liquid-gas [mN/m]
x1 = 0.1008	26.85
x1 = 0.1998	25.81
x1 = 0.3012	24.78
x1 = 0.4026	23.84
x1 = 0.4997	22.96
x1 = 0.6004	22.08
x1 = 0.6993	21.24
x1 = 0.8	20.48
x1 = 0.9002	19.78

COC(C)(C)C [2-methoxy-2-methylpropane]
[2]
Conditions	mass density [kg/m3]	surface tension liquid-gas [mN/m]
–	735.48	19.25

Cc1cccc(C)c1 [1,3-dimethylbenzene] + COC(C)(C)C
[1]
Conditions	surface tension liquid-gas [mN/m]
x2 = 0.1019	27.13
x2 = 0.2019	26.05
x2 = 0.3028	24.98
x2 = 0.4014	23.99
x2 = 0.4996	23.01
x2 = 0.6006	22.08
x2 = 0.7009	21.26
x2 = 0.8001	20.49
x2 = 0.9004	19.76

Cc1ccccc1C [1,2-dimethylbenzene]
[2]
Conditions	mass density [kg/m3]	surface tension liquid-gas [mN/m]
–	875.92	29.35

Cc1ccccc1C [1,2-dimethylbenzene] + CC(C)OC(C)C
[1]
Conditions	excess molar volume [m3/mol]	surface tension liquid-gas [mN/m]
x2 = 0.0506	-1.77e-07	–
x2 = 0.0997	-3.15e-07	–
x2 = 0.1022	–	27.21
x2 = 0.1501	-4.49e-07	–
x2 = 0.2003	-5.74e-07	–
x2 = 0.201	–	25.55
x2 = 0.2503	-6.91e-07	–
x2 = 0.3003	-7.82e-07	–
x2 = 0.3018	–	24.17
x2 = 0.35	-8.39e-07	–
x2 = 0.4004	-8.83e-07	–
x2 = 0.4037	–	23.01
x2 = 0.4497	-9.22e-07	–
x2 = 0.4997	–	22
x2 = 0.505	-9.36e-07	–
x2 = 0.5505	-9.48e-07	–
x2 = 0.5998	–	21.03
x2 = 0.6001	-9.1e-07	–
x2 = 0.6509	-8.82e-07	–
x2 = 0.7	-8.11e-07	–
x2 = 0.7013	–	20
x2 = 0.7502	-7.47e-07	–
x2 = 0.7987	–	19.15
x2 = 0.7999	-6.31e-07	–
x2 = 0.8502	-5.11e-07	–
x2 = 0.8987	–	18.08
x2 = 0.8997	-3.69e-07	–
x2 = 0.9493	-2.1e-07	–

CC(C)OC(C)C [diisopropyl ether] + Cc1ccc(C)cc1
[1]
Conditions	excess molar volume [m3/mol]	surface tension liquid-gas [mN/m]
x1 = 0.0527	-1.36e-07	–
x1 = 0.0988	–	26.3
x1 = 0.1016	-2.79e-07	–
x1 = 0.15	-3.98e-07	–
x1 = 0.2011	-5.1e-07	–
x1 = 0.2012	–	24.84
x1 = 0.2527	-5.88e-07	–
x1 = 0.2991	–	23.73
x1 = 0.3004	-6.58e-07	–
x1 = 0.3509	-7.3e-07	–
x1 = 0.4007	-7.61e-07	–
x1 = 0.4045	–	22.68
x1 = 0.4506	-7.85e-07	–
x1 = 0.5044	-8.02e-07	–
x1 = 0.5096	–	21.66
x1 = 0.5507	-7.95e-07	–
x1 = 0.6002	-7.87e-07	–
x1 = 0.603	–	20.76
x1 = 0.6498	-7.56e-07	–
x1 = 0.7	–	19.91
x1 = 0.7007	-7.02e-07	–
x1 = 0.7497	-6.25e-07	–
x1 = 0.7987	–	19.02
x1 = 0.7999	-5.37e-07	–
x1 = 0.8512	-4.32e-07	–
x1 = 0.898	–	18.18
x1 = 0.9	-3.18e-07	–
x1 = 0.9507	-1.78e-07	–

Cc1ccc(C)cc1 [1,4-dimethylbenzene]
[2]
Conditions	mass density [kg/m3]	surface tension liquid-gas [mN/m]
–	856.85	27.89

CC(C)OC(C)C [diisopropyl ether]
[2]
Conditions	mass density [kg/m3]	surface tension liquid-gas [mN/m]
–	718.38	17.31

Cc1cccc(C)c1 [1,3-dimethylbenzene] + CC(C)OC(C)C
[1]
Conditions	excess molar volume [m3/mol]	surface tension liquid-gas [mN/m]
x2 = 0.0514	-1.35e-07	–
x2 = 0.1002	-2.42e-07	–
x2 = 0.1019	–	26.38
x2 = 0.1526	-3.55e-07	–
x2 = 0.1997	-4.41e-07	–
x2 = 0.2111	–	24.88
x2 = 0.2501	-5.2e-07	–
x2 = 0.3002	-5.79e-07	23.72
x2 = 0.3498	-6.37e-07	–
x2 = 0.3999	–	22.67
x2 = 0.4001	-6.7e-07	–
x2 = 0.4516	-7.11e-07	–
x2 = 0.4991	–	21.73
x2 = 0.5012	-7.15e-07	–
x2 = 0.5509	-7.18e-07	–
x2 = 0.6001	-6.92e-07	–
x2 = 0.6006	–	20.86
x2 = 0.65	-6.71e-07	–
x2 = 0.6944	-6.17e-07	–
x2 = 0.6994	–	19.91
x2 = 0.7498	-5.58e-07	–
x2 = 0.7998	–	19.02
x2 = 0.8005	-4.77e-07	–
x2 = 0.8506	-3.93e-07	–
x2 = 0.8981	–	18.12
x2 = 0.8998	-2.83e-07	–
x2 = 0.95	-1.64e-07	–

Cc1cccc(C)c1 [1,3-dimethylbenzene]
[2]
Conditions	mass density [kg/m3]	surface tension liquid-gas [mN/m]
–	859.78	28.36
